Results from patent US5332726A, “Antithrombotic peptides and pseudopeptides” (Rhone-Poulenc Rorer Pharmaceuticals Inc., priority 1992, dated 1994).
Non-standard residues stand in square brackets, D forms with d. Residues, ends and D or L forms follow the SMILES beside them. Aoc = NCCCCCCCC(=O)O; Sar = CNCC(=O)O

How the values were obtained:
[1] = biological target: fixed activated platelets (Homo sapiens, UniProt P05106+P08514); assay: Platelet Aggregation Assay (fibrinogen-mediated aggregation of fixed-activated platelets); assay type: cell-based; conditions: for IC50: fixed activated platelets, human fibrinogen 250 μg/ml, read-out: Inhibition of Fibrinogen Mediated Platelet Aggregation IC50; for inhibition at 25 µM: read-out: Inhibition of Fibrinogen Mediated Platelet Aggregation % inhibition at 25 μM
Procedure: PLATELET AGGREGATION ASSAY
Preparation of Fixed-Activated Platelets
To the activated platelets is added paraformaldehyde to a final concentration of 0.50% and this incubated at room temperature for 30 minutes. The fixed activated platelets are then collected by centrifugation at 650×g for 15 minutes.
Platelet Aggregation Assay
The fixed activated platelets are incubated with a selected dose of the compound to be tested for platelet aggregation inhibition for one minute and aggregation initiated by addition of human fibrinogen to a final concentration of 250 μg/ml. A platelet aggregation profiler Model PAP-4 is used to record the platelet aggregation.

[2] = biological target: thrombin-stimulated platelets (Homo sapiens, UniProt P05106+P08514); assay: Fibrinogen-Binding Assay (125I-fibrinogen binding to platelets); conditions: 125I-fibrinogen 0.176 μmol/liter, thrombin-stimulated platelets; read-out: Inhibition of 125I-Fibrinogen Binding to Platelets IC50
Procedure: Platelets are washed free of plasma constituents by the albumin density-gradient technique of Walsh, P. N., et al., Br. J. Haematol. […] After these additions, the final platelet count in the mixture is 1×10^11 /liter. After incubation for an additional 30 minutes at 22°-25° C., bound and free ligand are separated by centrifuging 50 μl of the mixture through 300 μl of 20% sucrose at 12,000×g for 4 minutes. The platelet pellet is then separated from the rest of the mixture to determine platelet-bound radioactivity. Nonspecific binding is measured in mixtures containing an excess of unlabeled ligand. […] The IC50 is derived by plotting residual fibrinogen binding against the logarithm of the sample compound's concentration.

Chain of thrombin-stimulated platelets (P08514 32-1039): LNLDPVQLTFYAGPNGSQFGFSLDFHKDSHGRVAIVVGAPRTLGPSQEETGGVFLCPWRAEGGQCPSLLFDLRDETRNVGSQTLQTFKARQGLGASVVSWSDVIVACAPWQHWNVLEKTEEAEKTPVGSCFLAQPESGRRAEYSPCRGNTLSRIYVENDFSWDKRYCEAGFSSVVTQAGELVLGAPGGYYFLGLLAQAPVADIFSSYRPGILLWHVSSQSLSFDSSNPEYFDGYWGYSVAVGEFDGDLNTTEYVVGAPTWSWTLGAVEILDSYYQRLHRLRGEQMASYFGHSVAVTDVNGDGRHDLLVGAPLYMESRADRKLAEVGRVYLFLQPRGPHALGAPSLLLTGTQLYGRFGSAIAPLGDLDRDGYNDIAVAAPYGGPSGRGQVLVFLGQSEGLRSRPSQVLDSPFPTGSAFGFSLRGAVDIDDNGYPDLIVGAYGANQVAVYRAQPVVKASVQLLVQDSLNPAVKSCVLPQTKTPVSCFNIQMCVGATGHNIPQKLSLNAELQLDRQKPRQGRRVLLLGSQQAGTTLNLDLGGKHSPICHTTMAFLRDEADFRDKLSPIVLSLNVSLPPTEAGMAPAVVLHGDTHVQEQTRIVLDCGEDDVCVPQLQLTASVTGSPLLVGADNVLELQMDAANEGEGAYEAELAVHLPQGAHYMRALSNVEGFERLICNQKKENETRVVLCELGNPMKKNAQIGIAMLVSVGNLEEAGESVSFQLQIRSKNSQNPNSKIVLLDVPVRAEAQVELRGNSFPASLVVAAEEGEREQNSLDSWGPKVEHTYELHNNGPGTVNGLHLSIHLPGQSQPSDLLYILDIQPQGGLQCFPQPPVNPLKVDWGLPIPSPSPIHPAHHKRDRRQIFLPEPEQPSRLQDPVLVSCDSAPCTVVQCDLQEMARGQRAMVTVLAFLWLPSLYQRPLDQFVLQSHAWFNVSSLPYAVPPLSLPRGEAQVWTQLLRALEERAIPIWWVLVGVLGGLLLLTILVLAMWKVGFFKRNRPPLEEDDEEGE
Chain of thrombin-stimulated platelets (P05106 27-788): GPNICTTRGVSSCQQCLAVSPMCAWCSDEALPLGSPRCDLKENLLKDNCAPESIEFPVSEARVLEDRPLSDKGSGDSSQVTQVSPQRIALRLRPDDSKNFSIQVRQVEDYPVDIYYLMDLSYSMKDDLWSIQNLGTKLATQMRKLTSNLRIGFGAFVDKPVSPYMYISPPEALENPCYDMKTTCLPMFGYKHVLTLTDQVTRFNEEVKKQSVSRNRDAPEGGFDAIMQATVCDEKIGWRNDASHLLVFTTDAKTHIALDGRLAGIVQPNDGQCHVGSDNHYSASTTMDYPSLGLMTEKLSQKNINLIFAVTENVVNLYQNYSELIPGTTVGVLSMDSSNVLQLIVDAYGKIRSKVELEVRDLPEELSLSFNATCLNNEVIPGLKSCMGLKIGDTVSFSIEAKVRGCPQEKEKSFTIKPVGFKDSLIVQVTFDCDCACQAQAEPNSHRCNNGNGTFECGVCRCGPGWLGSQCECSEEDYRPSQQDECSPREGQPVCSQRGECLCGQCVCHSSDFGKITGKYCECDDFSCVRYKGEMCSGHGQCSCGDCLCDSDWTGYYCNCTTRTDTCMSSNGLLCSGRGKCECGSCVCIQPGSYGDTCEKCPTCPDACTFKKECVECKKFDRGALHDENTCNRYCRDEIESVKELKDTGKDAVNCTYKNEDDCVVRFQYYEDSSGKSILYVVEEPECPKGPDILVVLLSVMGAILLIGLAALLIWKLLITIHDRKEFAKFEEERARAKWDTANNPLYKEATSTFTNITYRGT
Chain of fixed activated platelets (P08514 32-1039): as the sequence (P08514 32-1039) above
Chain of fixed activated platelets (P05106 27-788): as the sequence (P05106 27-788) above

IC50 [1] [nM]	inhibition at 25 µM [1] [%]	IC50 [2] [nM]	SMILES
> 25000	35	2000	CC(C)[C@H](NC(=O)[C@H](CC(=O)O)NC(=O)CCCCCCn1ccnc1)C(=O)O [7-(Imidazol-1-yl)heptanoyl-L-aspartyl-L-valine]
10800	82	1300	CCN(CC(=O)N[C@@H](CC(=O)O)C(=O)N[C@H](C(=O)O)C(C)C)C(=O)CCCCCCn1ccnc1 [7-(Imidazol-1-yl)heptanoyl-N-(ethyl)glycyl-L-aspartyl-L-valine]
–	14	5100	CC(C)[C@H](NC(=O)[C@H](CC(=O)O)NC(=O)CN(C)C(=O)CCCCCCNC(=N)N)C(=O)O [7-Guanidinoheptanoyl-L-sarcosyl-L-aspartyl-L-valine]
21000	56	6400	CC(C)[C@H](NC(=O)[C@H](CC(=O)O)NC(=O)CNC(=O)CCCCCCNC(=N)N)C(=O)O [7-Guanidinoheptanoyl-glycyl-L-aspartyl-L-valine]
11600	78	860	CC(C)[C@H](NC(=O)[C@H](CC(=O)O)NC(=O)CCCCCCCn1ccnc1)C(=O)O [8-(Imidazol-1-yl)-octanoyl-L-aspartyl-L-valine]
2600	96	230	CC(C)[C@H](NC(=O)[C@H](CC(=O)O)NC(=O)CN(C)C(=O)CCCCCCCN)C(=O)O [8-Aminooctanoyl-sarcosyl-L-aspartyl-L-valine] (H-[Aoc][Sar]DV-OH)
630	90	580	N=C(N)NCCCCCC=CC(=O)N[C@@H](CC(=O)O)C(=O)N[C@@H](CCCNC(=N)N)C(=O)O [8-Guanidinooct-2-enoyl-L-aspartyl-L-arginine]
290	96	840	CC(C)[C@H](NC(=O)[C@H](CC(=O)O)NC(=O)C=CCCCCCNC(=N)N)C(=O)O [8-Guanidinooct-2-enoyl-L-aspartyl-L-valine]
7800	81	14500	CC(C)CNC(=O)[C@H](CC(=O)O)NC(=O)CCCCCCCNC(=N)N [8-Guanidinooctanoyl-L-aspartic acid-α-isobutylamide]
1600	93	780	N=C(N)NCCCCCCCC(=O)N[C@@H](CC(=O)O)C(=O)N[C@@H](CCCCN)C(=O)O [8-Guanidinooctanoyl-L-aspartyl-L-lysine]
690	96	200	N=C(N)NCCCCCCCC(=O)N[C@@H](CC(=O)O)C(=O)N[C@@H](Cc1ccccc1)C(=O)O [8-Guanidinooctanoyl-L-aspartyl-L-phenyl-alanine]
2700	89	2800	CC(C)[C@H](NC(=O)[C@H](CC(=O)O)NC(=O)CCCCCCCNC(=N)N)C(=O)O [8-Guanidinooctanoyl-L-aspartyl-L-valine]
2200	94	330	N=C(N)NCCCCCCCC(=O)N[C@@H](CC(=O)O)C(=O)N[C@@H](CCCNC(=N)N)C(=O)O [8-Guanidinooctanoyl-L-aspartyl-arginine]
3400	96	500	CC(C)[C@H](NC(=O)[C@H](CC(=O)O)NC(=O)CCCCCCCCn1ccnc1)C(=O)O [9-(Imidazol-1-yl)-nonanoyl-L-aspartyl-L-valine]
–	24	430	CC(C)[C@H](NC(=O)[C@H](CC(=O)O)NC(=O)/C=C/CCCCCCNC(=N)N)C(=O)O [9-Guanidinonon-2-(E)-enoyl-L-aspartyl-L-valine]
13300	69	20000	COC(=O)[C@](CCCNC(=N)N)(Cc1ccccc1)NC(=O)[C@H](CC(=O)O)NC(=O)CCCCCCCCNC(=N)N [9-Guanidinononanoyl-L-aspartyl-(S)-α-benzyl arginine methyl ester]

IC50 [1] [nM]	inhibition at 25 µM [1] [%]	IC50 [2] [nM]	SMILES
13100	75	10200	CC[C@@H](C)[C@@H](NC(=O)[C@H](CC(=O)O)NC(=O)CCCCCCCCNC(=N)N)C(=O)N[C@@H](CCCNC(=N)N)C(=O)O [9-Guanidinononanoyl-L-aspartyl-D-isoleucyl-L-arginine]
2200	89	3000	CC(C)CNC(=O)[C@H](CCCNC(=N)N)NC(=O)[C@H](CC(=O)O)NC(=O)CCCCCCCCNC(=N)N [9-Guanidinononanoyl-L-aspartyl-L-arginine isobutyl amide]
730	97	120	CCC(C)COC(=O)[C@H](CCCNC(=N)N)NC(=O)[C@H](CC(=O)O)NC(=O)CCCCCCCCNC(=N)N (stereo partly drawn) [9-Guanidinononanoyl-L-aspartyl-L-arginine-2-methyl-butylester]
1700	97	150	CC(C)CCOC(=O)[C@H](CCCNC(=N)N)NC(=O)[C@H](CC(=O)O)NC(=O)CCCCCCCCNC(=N)N [9-Guanidinononanoyl-L-aspartyl-L-arginine-3-methylbutyl ester]
820	91	260	N=C(N)NCCCCCCCCC(=O)N[C@@H](CC(=O)O)C(=O)N[C@@H](CCCNC(=N)N)C(=O)OC1CCCCC1 [9-Guanidinononanoyl-L-aspartyl-L-arginine-cyclohexylester]
260	97	130	N=C(N)NCCCCCCCCC(=O)N[C@@H](CC(=O)O)C(=O)N[C@@H](CCCNC(=N)N)C(=O)O [9-Guanidinononanoyl-L-aspartyl-L-arginine]
15000	68	15000	N=C(N)NCCCCCCCCC(=O)N[C@@H](CC(=O)O)C(=O)N[C@@H](CCCNC(=N)N)C(=O)N[C@@H](CCCNC(=N)N)C(=O)O [9-Guanidinononanoyl-L-aspartyl-L-arginyl-L-arginine]
4200	93	380	CC[C@H](C)[C@H](NC(=O)[C@H](CC(=O)O)NC(=O)CCCCCCCCNC(=N)N)C(=O)O [9-Guanidinononanoyl-L-aspartyl-L-isoleucine]
2000	97	15000	CC[C@H](C)[C@H](NC(=O)[C@H](CC(=O)O)NC(=O)CCCCCCCCNC(=N)N)C(=O)N[C@H](CCCNC(=N)N)C(=O)O [9-Guanidinononanoyl-L-aspartyl-L-isoleucyl-D-arginine]
300	95	210	CCCC[C@H](NC(=O)[C@H](CC(=O)O)NC(=O)CCCCCCCCNC(=N)N)C(=O)N[C@@H](CCCNC(=N)N)C(=O)O [9-Guanidinononanoyl-L-aspartyl-L-norleucyl-L-arginine]
2400	93	1200	CC[C@H](C)[C@H](NC(=O)[C@H](CCCNC(=N)N)NC(=O)[C@H](CC(=O)O)NC(=O)CCCCCCCCNC(=N)N)C(=O)O [9-Guanidinononanoyl-L-aspartyl-arginyl-isoleucine]
2200	85	7000	N=C(N)NCCCCCCCCC(=O)N[C@@H](CC(=O)O)C(=O)NCC(=O)N[C@@H](CCCNC(=N)N)C(=O)O [9-Guanidinononanoyl-L-aspartyl-glycyl-L-arginine]
25000	54	40000	CC[C@H](C)[C@H](NC(=O)CNC(=O)[C@H](CC(=O)O)NC(=O)CCCCCCCCNC(=N)N)C(=O)O [9-Guanidinononanoyl-L-aspartyl-glycyl-L-isoleucine]
5700	95	240	CC[C@H](C)[C@H](NC(=O)[C@H](CC(=O)O)NC(=O)CCCCCCCCNC(=N)N)C(=O)NCCCCNC(=N)N [9-Guanidinononanoyl-L-aspartyl-isoleucine-4-guanidinobutyl amide]
670	94	370	CC[C@H](C)[C@H](NC(=O)[C@H](CC(=O)O)NC(=O)CCCCCCCCNC(=N)N)C(=O)N[C@@H](CCCNC(=N)N)C(=O)O [9-Guanidinononanoyl-L-aspartyl-isoleucyl-arginine]

SMILES	IC50 [1] [nM]	inhibition at 25 µM [1] [%]	IC50 [2] [nM]
N=C(N)NCCCCCCCC(=O)N[C@@H](CC(=O)O)C(=O)NCCCCNC(=N)N [8-Guanidinooctanoyl-L-aspartyl-(des-carboxy)-L-arginine]	1900	91	990
N=C(N)NCCCCCCCCC(=O)N[C@@H](CC(=O)O)C(=O)NCCCCNC(=N)N [9-Guanidinononanoyl-L-aspartyl-(des-carboxy)-L-arginine]	4400	84	520
N=C(N)NCCCCCCCCC(=O)N[C@@H](CC(=O)O)C(=O)N[C@@H](Cc1ccccc1)C(=O)N[C@@H](CCCNC(=N)N)C(=O)O [9-Guanidinononanoyl-L-aspartyl-L-phenylalanine-L-arginine]	320	98	6000
